Results: patent US20220202739A1, “ENDOCANNABINOID MIMETIC AND ANTI-INFLAMMATORY COMPOUND CONTAINING COMPOSITIONS, METHODS OF PREPARATION AND USES THEREOF” (priority 2019, published 2022)

Tests used:
Format in all cases: cell-based
CNR1 = experiment: Gene expression custom microarray, human skin fibroblasts (Example 1): CNR1
Excerpt: (§1) Cell cultures: A human skin fibroblast cell culture (or cultures) was obtained through the Coriell Cell Repository from the National Institute on Aging Cell Repository (Camden, N.J.), or Promocell GmbH (Heidelberg, Germany). The initial culture was selected from the following cell lines: AG13066, AG11557, AG11796 or GM03651E. The cell lines were derived from donors as follows:
(§2) Experimental phase: When the appropriate quantity of cells had been grown, they were detached as described above, but at the final step were seeded into each well of one or more 6 well dishes. Each well received 2 ml of the cell suspension so they were seeded equally. The dishes were returned to the incubator until 85-95% confluency was reached.
(§3) It is at this stage that all wells were rinsed in PBS after aspirating the growth media. The compound(s) to be tested were previously mixed into a suitable solvent (e.g., DMSO or ethanol) that can be diluted to the desired concentration of test compound (10 μl) in the culture wells without exceeding maximum solvent concentrations and adversely effecting cell viability, and mixed with basal media. NOTE: Standard maximum levels of solvent are 0.1% for DMSO and 0.5% for ETOH. The concentration of each test compound is found in Tables 1 & 2.
(§4) Every 2 wells on the 6 well plate served as a biological replicate for the purposes of RNA isolation and genetic expression evaluations making each 6 well dish an n=3 for the test compound(s) contained in the media. Negative control plates (no test compound(s) and only basal media) were also generated. The plates were returned to the incubator for 24 hrs.
(§5) At the end of the 24 hr time period, the plates were removed from the incubator, the test media aspirated, and the cells rinsed with PBS. RNA isolation is performed using the BioRad Aurum Total RNA Mini Kit (Hercules, Calif.) per manufacturer's protocol; which is described, in brief, below: • Add 350 μl of lysis buffer to each well. Pipet multiple times to ensure thorough lysis. Add lysed cells to the collection tube. • Add 350 μl of 70% ETOH to the collection tube and mix thoroughly. • Pipet the generated lysate onto the spin column placed in a new 2 ml tube. Centrifuge for 30 sec between 8,000 and 10,000 g. • Place the spin column containing the now bound RNA, in a new 2 ml tube. Add 700 μl of low stringency wash solution to the spin column. Centrifuge for 30 sec between 8,000 and 10,000 g. Discard the flow through and replace spin column. • Add 80 μl of DNase I dilution to the spin column and incubate at room temperature for 15 minutes. • Add 700 μl of high stringency wash solution to the column and centrifuge for 30 sec between 8,000 and 10,000 g. Discard flow through. • Add 700 μl of low stringency wash solution to the column and centrifuge for 60 sec between 8,000 and 10,000 g. Discard flow through. • Centrifuge for 2 minutes to remove residual wash solution. • Transfer spin column to new 1.5 ml collection tube and add 80 μl of elution solution to the column. Allow 1 minute for saturation of the membrane and then centrifuge for 2 minutes to complete the RNA elution. • Quantify the quantity of RNA and store at −20 C° until use (no more than 1 month)
(§6) The genes tested were: • Cannabinoid receptor 1 (CB1(CNR1)) • Cannabinoid receptor 2 (CB2 (CNR2)) • Fatty acid amide hydrolase (FAAH) • Monoacylglycerol lipase (MGLL, i.e., MAGL) • Peroxisome proliferator-activated receptor gamma (PPARG) • Nuclear factor kappa-light-chain-enhancer of activated B cells (NFκβ) • Interleukin 1 Alpha (IL1alpha) • Cyclooxygenase 1 (PTGS1, i.e., COX1) • Transient receptor potential cation channel subfamily A member 1 (TRPA1) • Transient receptor potential cation channel subfamily V member 1 (TRPV1) • Transient receptor potential cation channel subfamily M member 8 (TRPM8) • Hemoglobin Subunit Beta (HBB) REFERENCE GENE • Ribosomal Protein L13a (RPL13A) REFERENCE GENE […]

FAAH = experiment: Gene expression custom microarray, human skin fibroblasts (Example 1): FAAH
Excerpt: as §1, §2, §3, §4, §5, §6

MAGL = experiment: Gene expression custom microarray, human skin fibroblasts (Example 1): MAGL
Excerpt: as §1, §2, §3, §4, §5, §6

NFKB1 = experiment: Gene expression custom microarray, human skin fibroblasts (Example 1): NFKB1; details: human skin fibroblasts, 10 uM, 24 hr
Excerpt: as §1, §2
as §3, with “ETOH.” for “ETOH. The concentration of each test compound is found in Tables 1 & 2.”
as §4, §5
The genes tested were: • Cannabinoid receptor 1 (CB1(CNR1)) • Cannabinoid receptor 2 (CB2 (CNR2)) • Fatty acid amide hydrolase (FAAH) • Monoacylglycerol lipase (MGLL, i.e., MAGL) • Peroxisome proliferator-activated receptor gamma (PPARG) • Nuclear factor kappa-light-chain-enhancer of activated B cells (NFκβ) • Interleukin 1 Alpha (IL1alpha) • Cyclooxygenase 1 (PTGS1, i.e., COX1) • Transient receptor potential cation channel subfamily A member 1 (TRPA1) • Transient receptor potential cation channel subfamily V member 1 (TRPV1) • Transient receptor potential cation channel subfamily M member 8 (TRPM8) • Hemoglobin Subunit Beta (HBB) REFERENCE GENE • Ribosomal Protein L13a (RPL13A) REFERENCE GENE

PTGS1 = experiment: Gene expression custom microarray, human skin fibroblasts (Example 1): PTGS1; details: human skin fibroblasts, 10 uM, 24 hr
Excerpt: as §1, §2, §3, §4, §5, §6

[1] = human skin fibroblasts, 10 uM, 24 hr

Structure (SMILES) | fold induction at 10 µM (CNR1; Homo sapiens, Skin fibroblast, 24 h, read-out: CNR1↑ gene expression, fold increase or decrease vs untreated cells) | fold induction at 10 µM (FAAH; Homo sapiens, Skin fibroblast, 24 h, read-out: FAAH↓ gene expression, fold increase or decrease vs untreated cells) | fold induction at 10 µM (MAGL; Homo sapiens, Skin fibroblast, 24 h, read-out: MAGL↓ gene expression, fold increase or decrease vs untreated cells) | fold induction at 10 µM (NFKB1; Skin fibroblast, read-out: NFKB1↓ gene expression, fold increase or decrease vs untreated cells) | fold induction at 10 µM (PTGS1; Skin fibroblast, read-out: PTGS1↓ gene expression, fold increase or decrease vs untreated cells) | CNR1↑ gene expression, fold increase or decrease vs untreated cells (CNR1; [1]) | FAAH↓ gene expression, fold increase or decrease vs untreated cells (FAAH; [1]) | MAGL↓ gene expression, fold increase or decrease vs untreated cells (MAGL; [1]) | NFKB1↓ gene expression, fold increase or decrease vs untreated cells (NFKB1) | PTGS1↓ gene expression, fold increase or decrease vs untreated cells (PTGS1)
C=C(C)[C@@H]1CCC(C)=C[C@H]1c1c(O)cc(CCCCC)cc1O [CBD, cannabidiol, reference compound] | 1.5 | 2.2 | 1.8 | 2.3 | 4.2 |  |  |  |  | 
CCCCCCCCCCCCCCCC(=O)NCCO [N-palmitoylethanolamide] |  |  |  |  |  | 5.9 fold | −1.1 fold | 2.8 fold | 1.5 fold | 1.1 fold
